Assay results: patent publication US20250120942A1, “BRAIN FUNCTION IMPROVING AGENT” (OSAKA UNIVERSITY, priority 2021, published 2025)

Assays:
[1] = test system: scopolamine-induced amnesia mouse; assay: Y-maze test, short-term working memory of scopolamine-induced amnesia mouse (Test Example 2); type: in vivo, ddY mouse; details: for scopolamine-induced reduction in working memory (Spontaneous Alternation): FIG. 2(C)
Method: The effect of inhibiting lowering of short-term memory was examined by orally or subcutaneously (intraperitoneally) administering the compound A to the mouse.
(§1) 7-weeks-old male ddY mice were purchased from Japan SLC, Inc. and subjected to the experiment after one week habituation period. The animals were reared in the rearing chamber provided with air conditioner (under the condition that the temperature was 22° C.±1° C., the relative humidity was 50±10%, and the irradiation time was 12 hours (8:00 to 20:00)). The feeding method was that the commercially available MF powdery feed (manufactured by Oriental Yeast Co., ltd.) and tap water were taken freely.
The compound A prepared according to the procedure described in Manufacturing Example 1 was dissolved in 2.5% DMSO solution in advance. There were 15 mice in each group, and the 30 mg/kg compound administration group and the 10 mg/kg compound administration group were established and orally administered. The mice of the control group and Vehicle group were orally administered with only 2.5% DMSO solution. In the same manner the compound B and the compound C were orally administered to 10 mice at a dose of 30 mg/kg respectively. Each mouse of the administration groups of the compound A to C and the vehicle group was intraperitoneally administered with scopolamine hydrobromide (manufactured by Sigma-Aldrich Japan S1875) (a dose of 1 mg/kg) which is muscarinic acetylcholine receptor antagonist 30 minutes after the administration. The mice of the control group which were not administered with scopolamine hydrobromide were intraperitoneally administered with (Japanese Pharmacopoeia) physiological saline solution (OTSUKA NORMAL SALINE 3311401A2026). At 30 minutes after the final administration, Y-maze test was conducted, and the working memory was evaluated. The test using the mice orally administered was separately conducted under the same condition as that described above for comparative evaluation of the intraperitoneal administration.
The Y-maze manufactured by Brain Science. idea Co., Ltd. was used for the test. The maze was the maze 3 courses of which were made into Y-letter shape having one selection point and arranged at interval of an angle of 120 degree. […] The mouse put on the gray course (made of polyvinyl chloride) was kept in the conditions and the mouse can see nothing but the upper part. Any one of the 3 courses of the maze was set as a starting point. After placing the mouse quietly at the starting point, the number of the times the mouse entered each course was record per 8 minutes, and as well as which course and in what order the mouse entered it. The ratio of the number of three consecutive entries into different courses (the number of the alternation behavior) to the total number of the selections was calculated as Spontaneous Alternation (%) according to the following formula and was used as an index of the short-term working memory.
From the results obtained, the mean (Mean) and the standard error (SEM) were calculated. The significant difference between the control group and the Vehicle group and between the compound A administration group and the Vehicle group was assessed by Turkey-Kramer's test. The level of significance was set to *P<0.05 and **p<0.01.

[2] = test system: extracellular acetylcholine in the cerebral cortex; assay: Amount of extracellular acetylcholine in mouse brain by in vivo microdialysis (Test Example 1); design: species or system ddY mouse; details: oral 30 mg/kg, FIG. 1
Method: The compound A, B, and C were administered orally to the mouse and the effect on the amount of extracellular acetylcholine in the brain was examined. The brain microdyalysis method using the mouse is proposed as a test for evaluating cognitive dysfunction including Alzheimer type dementia. The brain microdyalysis method is a system that can monitor the variation of extracellular neurotransmitter release in real time at the local parts in the brain while the test animals are moving freely without anesthesia.
as §1
In the two days before the start of the experiment, the fixing operation of the guide cannula for inserting the dialysis probe in the mouse was conducted in advance. Under the deep anesthetized conditions, the guide cannula (depth 4 mm) (manufactured by Eicom Corp.,) was inserted in and fixed on cerebral cortex prefrontal area (which was 1.9 mm forward and 0.5 mm right side from the bregma and to which the depth from cranial surface was 0.8 mm). Buprenorphine (0.01 mg/kg manufactured by Sigma-Aldrich Japan) was administered to the mouse as analgesic after the operation. Each mouse was reared in the separate cage after the operation.
In the step of measuring extracellular acetylcholine in the brain, the dialysis probe (membrane length 3 mm) (manufactured by Eicom Corp.,) was inserted in the guide cannula and the Ringer's solution in the Japanese Pharmacopeia (containing NaCl (147.2 mM), KCl (4.0 mM), and CaCl2 (2.2 mM); manufactured by FUSO CHEMICAL CO., LTD.) was perfused at the flow velocity of 1 μL/min. The sample obtained by the perfusion was collected every 20 minutes and was immediately continuously automatically injected in the high-speed liquid chromatography/electrochemical detector (HPLC/ECD) system (manufactured by Eicom Corp., HTEC-500) together with the internal standard material (isopropylhomocholine, 250 fmol) and acetylcholine was measured under the condition described below.
• Column: Eicompak AC-GEL (2.0 mm; i.d.×150 mm) (manufactured by Eicom Corp.,) • Precolumn: PC-05-03 (3.0 mm; i.d.×40 mm) (manufactured by Eicom Corp.,) • Enzyme-immobilized column: AC-Enzympak (3.0 mm; i.d.) (manufactured by Eicom Corp.,) • Mobile Phase: 50 mM potassium hydrogen carbonate buffer containing 400 mg/L sodium decansulfonic acid and 134 μM EDTA (pH 8.3) • Flow Velocity: 150 μl/min. • Temperature of column: 33° C. • Applied voltage of ECD: +450 mV • Reference electrode: Ag/AgCl electrode • Work electrode: platinum electrode
The compound A prepared according to the procedure described in Manufacturing Example 1 was dissolved in 2.5% DMSO solution in advance to prepare for the test. […] The amount of the extracellular acetylcholine released was measured by the procedure described above in (a) Used animal and Rearing Procedure in real time for 120 minutes after the administration. The mouse in Vehicle group took only 2.5% DMSO solution orally in the same way and the amount of the extracellular acetylcholine was measured. […]

O=C1CC[C@H](Cc2cc(O)cc(O)c2)O1 [compound A, (R)-5-(3,5-dihydroxyphenyl)-γ-valerolactone]
ameliorating the impairment of short-term working memory (Spontaneous Alternation) ([1]; oral 30 mg/kg, scopolamine 1 mg/kg i.p., FIG. 2(A),(B)): significant effect of inhibiting the lowering of short-term working memory | lowering of the short-term memory due to scopolamine (Spontaneous Alternation) ([1]; oral administration groups (10 mg/kg and 30 mg/kg), scopolamine 1 mg/kg i.p. 30 minutes later, FIG. 2(A)): inhibited | scopolamine-induced reduction in working memory (Spontaneous Alternation) ([1]; oral administration): inhibited scopolamine-induced reductions in working memory | scopolamine-induced reduction in working memory (Spontaneous Alternation) ([1]; subcutaneous administration): inhibited scopolamine-induced reductions in working memory | amount of extracellular acetylcholine in the cerebral cortex versus Vehicle group ([2]; 40 and 60 minutes after the administration): significant increase | amount of extracellular acetylcholine in the cerebral cortex (ratio to basic released amount) ([2]; measured for 120 minutes after administration, compared with before administration): increased
